Common to all, as to type: physicochemical
The nature of data set [1]: Crystal form conversion on storage or heating (XRPD/DSC). An excerpt: The innovator of this invention set up 103 pleiomorphic screening tests using 7 methods, and obtained 7 crystal forms therefrom, i.e., crystal forms A, B, C, E, F, J and K. Among those, crystal forms B, F and J are instable at common temperature while crystal form K is a crystal form of troxacitabine acetic acid solvate or acetate, crystal form C is a crystal form of troxacitabine monohydrate, and crystal forms A and E are the crystal forms of troxacitabine itself (anhydrous substance).
Transfer 201.3 mg of the final product obtained in the embodiment 1 to a 5-ml flasket, add 0.8 mL of water to dissolve and volatilize in a fume hood with the top open for 3 days. Transfer into a vacuum drying oven (<−100 KPa) and volatilize with the top open for 1 day. The resulted crystal form is called crystal form C and its superficial characteristics are obtained using x-ray powder diffraction (XRPD), thermogravimetric analysis (TGA) and differential scanning calorimetry (DSC).
Transfer 199.8 mg of the final product obtained in the embodiment 1 to a 5-ml flasket, add 4.0 mL of methanol:acetone=1:9 (v/v), and mix the suspension for 3 days. Centrifugate for 3 min at a rate of 10000 rpm, precipitate and vacuum dry for 1 h. The resulted crystal form is called crystal form E and its superficial characteristics are obtained using x-ray powder diffraction (XRPD) and differential scanning calorimetry (DSC). […] (the first endothermic peak at a starting temperature of 68.3° C. is the dehydration peak of crystal form C), the second endothermic peak disappears from DSC spectrum when heated to 160° C., that is, the second endothermic peak at a starting temperature of 146.0° C. is the crystal form conversion peak of crystal form A from crystal form E.)

Data set [2] in a line: Hygroscopicity study by DVS method at 25° C. Conditions: for humidity at which the crystal form begins to absorb water / water absorbed at 90% RH: 25° C.; for crystal form after water absorption / DVS (XRPD): XRPD before and after DVS. The method, then: The hygroscopicity of crystal forms A, C and E is evaluated by DVS method at 25° C. Crystal form A begins to absorb water at 70% RH and absorbs 8.4% of water at 90% RH. […] Crystal form E begins to absorb water at 80% RH and absorbs 8.5% of water at 90% RH. […] Therefore, crystal form C is selected for further stability study.

Data set [3] is described as follows: Stability study of crystal form C (XRPD, TGA, DSC, HPLC). As to the method:
Crystal form C is evaluated for its physical-chemical stability when placed at 80° C. for 24 h (with the top closed) as well as at 40° C./75% RH and 25° C./60% RH for 1 week (with the top open). The chemical and physical stability of the samples are tested by XRPD, TGA, DSC and HPLC.

The mark [4] stands for this setting: 1 week, 25° C./60% RH, top open.
Where [5] appears, read: 1 week, 40° C./75% RH, top open.

For `Nc1ccn(C2CO[C@H](CO)O2)c(=O)n1` (some centres unmarked) [crystal form A], in data set [1] (1-month storage), the “crystal form change on storage” value is on record as “partially convert into crystal form C”. Also, in data set [2] (DVS), the “humidity at which the crystal form begins to absorb water” value worked out at 70 % RH and the “water absorbed at 90% RH” value is given as 8.4%. Also, in data set [2], the “crystal form after water absorption / DVS (XRPD)” value is given as “begins to convert into crystal form C”.

For `Nc1ccn(C2CO[C@H](CO)O2)c(=O)n1` (some centres unmarked) [crystal form E], the “crystal form change on heating” value in data set [1] (heated to 160° C., XRPD) was “conversion of crystal form E into crystal form A”. Also, the “crystal form change on storage” value in data set [1] (stored for 3 months in air, XRPD) is “has a tendency to convert into crystal form C”. For the same compound, in data set [2] (DVS), the “humidity at which the crystal form begins to absorb water” value worked out at 80 % RH and the “water absorbed at 90% RH” value was found to be 8.5%. Further, the “crystal form after water absorption / DVS (XRPD)” value in data set [2] was “begins to convert into crystal form C”.

For `Nc1ccn(C2CO[C@H](CO)O2)c(=O)n1` (some centres unmarked) [crystal form C], the “TGA weight loss (heated to 100° C.)” value was found to be 8.0 in data set [3] (0 h, NA); 8.2 in data set [3] (setting [4]); 7.9 in data set [3] (setting [5]); 0.4 in data set [3] (24 h, 80° C., top closed). Moreover, the HPLC purity in data set [3] (0 h, NA) was determined as 100.0 area %; in data set [3] (setting [4]), 100.0 area %; in data set [3] (setting [5]) it was 100.0 area %; in data set [3] (24 h, 80° C., top closed), 100.0 area %. Also, the physical stability entry in data set [3] (40° C./75% RH and 25° C./60% RH, 1 week) is recorded as “physically stable”. Moreover, the chemical stability result in data set [3] (80° C. 24 h, 40° C./75% RH and 25° C./60% RH 1 week, chemical impurity analysis) was “chemically stable”. Besides, the “crystal form change on heating” value in data set [1] (heated to 100° C., XRPD) is on record as “conversion of crystal form C into crystal form A”. The hygroscopicity in data set [2] (DVS, 25° C./80% RH) came out at 0.14%. For the same compound, in data set [2], the “crystal form after water absorption / DVS (XRPD)” value is recorded as “remain the same in crystal form”. In addition, the “relative stability among crystal forms” value in data set [2] (room temperature and room humidity) is recorded as “most stable crystal form”.
